# Reference: PMC6616564, “Identification of ryuvidine as a KDM5A inhibitor” (Scientific Reports, 2019)
# Like-named read-outs stand apart in the source and are kept apart here.
# What was measured:
# Type in all cases: biochemical
# [1] = target: T1, KDM5A (His-tagged KDM5A 1-797) (Homo sapiens, UniProt P29375); assay: AlphaScreen H3K4me3 demethylation
# T1 construct: residues 1-797, C-terminally truncated, N-terminal His6 tag, Sf9 baculovirus, HisTrap purified
# T1 sequence (P29375 1-797): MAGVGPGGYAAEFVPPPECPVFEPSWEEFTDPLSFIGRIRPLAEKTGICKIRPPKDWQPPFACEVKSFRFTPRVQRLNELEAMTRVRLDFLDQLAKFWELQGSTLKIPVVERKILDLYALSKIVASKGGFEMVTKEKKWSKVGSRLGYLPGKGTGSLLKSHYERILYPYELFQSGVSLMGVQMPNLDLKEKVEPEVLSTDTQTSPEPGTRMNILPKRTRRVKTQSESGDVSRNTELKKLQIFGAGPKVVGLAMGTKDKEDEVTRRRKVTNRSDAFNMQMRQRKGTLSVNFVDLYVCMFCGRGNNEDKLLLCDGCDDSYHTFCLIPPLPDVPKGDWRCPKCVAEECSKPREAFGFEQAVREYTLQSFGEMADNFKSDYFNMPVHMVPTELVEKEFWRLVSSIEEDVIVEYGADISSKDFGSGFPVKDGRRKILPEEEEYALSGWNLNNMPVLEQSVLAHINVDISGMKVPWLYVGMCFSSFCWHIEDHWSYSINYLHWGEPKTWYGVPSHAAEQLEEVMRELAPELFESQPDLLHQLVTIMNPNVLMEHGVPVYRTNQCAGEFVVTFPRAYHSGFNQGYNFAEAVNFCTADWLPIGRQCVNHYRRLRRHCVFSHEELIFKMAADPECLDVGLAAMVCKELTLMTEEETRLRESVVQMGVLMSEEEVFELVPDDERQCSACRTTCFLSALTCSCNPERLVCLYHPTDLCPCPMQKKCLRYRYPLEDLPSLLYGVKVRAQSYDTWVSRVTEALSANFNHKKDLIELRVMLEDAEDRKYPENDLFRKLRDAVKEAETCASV
# Description: AlphaScreen H3K4me3 demethylation on KDM5A (His-tagged KDM5A 1-797)
# [2] = target: T2, LSD1 (His-tagged human full-length LSD1) (Homo sapiens, UniProt O60341); assay: MALDI-TOF MS demethylation assay; conditions: no inhibition at 50 μM; 30 μM H3K4me2 peptide, pH 7.5, 37 °C
# T2 construct: gene KDM1A
# Description: MALDI-TOF MS demethylation assay on LSD1 (His-tagged human full-length LSD1)
# [3] = target: T3, KDM5B (His-tagged KDM5B 1-769) (Homo sapiens, UniProt Q9UGL1); assay: MALDI-TOF MS demethylation assay
# T3 construct: residues 1-769, C-terminally truncated, N-terminal His6 tag, Sf9 baculovirus, HisTrap purified
# T3 sequence (Q9UGL1 1-769): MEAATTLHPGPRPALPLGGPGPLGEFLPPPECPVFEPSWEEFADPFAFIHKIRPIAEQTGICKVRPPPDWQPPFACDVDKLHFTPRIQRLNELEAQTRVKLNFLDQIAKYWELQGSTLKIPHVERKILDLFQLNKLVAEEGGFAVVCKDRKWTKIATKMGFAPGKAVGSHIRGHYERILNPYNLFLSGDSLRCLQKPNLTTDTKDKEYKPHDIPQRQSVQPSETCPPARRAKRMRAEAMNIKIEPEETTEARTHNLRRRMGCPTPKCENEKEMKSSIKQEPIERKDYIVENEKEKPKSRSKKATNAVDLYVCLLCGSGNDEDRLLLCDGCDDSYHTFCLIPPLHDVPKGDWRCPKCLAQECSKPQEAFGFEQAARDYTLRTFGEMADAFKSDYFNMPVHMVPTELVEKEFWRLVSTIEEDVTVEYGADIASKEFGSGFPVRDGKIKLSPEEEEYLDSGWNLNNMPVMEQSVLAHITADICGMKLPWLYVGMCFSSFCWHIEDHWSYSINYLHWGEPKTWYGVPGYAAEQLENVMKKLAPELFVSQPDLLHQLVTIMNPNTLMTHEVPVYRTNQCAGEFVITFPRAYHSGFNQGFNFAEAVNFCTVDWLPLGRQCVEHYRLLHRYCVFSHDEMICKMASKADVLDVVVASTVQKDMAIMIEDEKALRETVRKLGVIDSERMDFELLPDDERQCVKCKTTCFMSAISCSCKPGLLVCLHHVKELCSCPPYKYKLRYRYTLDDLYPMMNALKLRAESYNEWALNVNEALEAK
# Description: MALDI-TOF MS demethylation assay on KDM5B (His-tagged KDM5B 1-769)
# [4] = target: T4, KDM5C (His-tagged KDM5C 1-839) (Homo sapiens, UniProt P41229); assay: MALDI-TOF MS demethylation assay
# T4 construct: residues 1-839, C-terminally truncated, N-terminal His6 tag, Sf9 baculovirus, HisTrap purified
# T4 sequence (P41229 1-839): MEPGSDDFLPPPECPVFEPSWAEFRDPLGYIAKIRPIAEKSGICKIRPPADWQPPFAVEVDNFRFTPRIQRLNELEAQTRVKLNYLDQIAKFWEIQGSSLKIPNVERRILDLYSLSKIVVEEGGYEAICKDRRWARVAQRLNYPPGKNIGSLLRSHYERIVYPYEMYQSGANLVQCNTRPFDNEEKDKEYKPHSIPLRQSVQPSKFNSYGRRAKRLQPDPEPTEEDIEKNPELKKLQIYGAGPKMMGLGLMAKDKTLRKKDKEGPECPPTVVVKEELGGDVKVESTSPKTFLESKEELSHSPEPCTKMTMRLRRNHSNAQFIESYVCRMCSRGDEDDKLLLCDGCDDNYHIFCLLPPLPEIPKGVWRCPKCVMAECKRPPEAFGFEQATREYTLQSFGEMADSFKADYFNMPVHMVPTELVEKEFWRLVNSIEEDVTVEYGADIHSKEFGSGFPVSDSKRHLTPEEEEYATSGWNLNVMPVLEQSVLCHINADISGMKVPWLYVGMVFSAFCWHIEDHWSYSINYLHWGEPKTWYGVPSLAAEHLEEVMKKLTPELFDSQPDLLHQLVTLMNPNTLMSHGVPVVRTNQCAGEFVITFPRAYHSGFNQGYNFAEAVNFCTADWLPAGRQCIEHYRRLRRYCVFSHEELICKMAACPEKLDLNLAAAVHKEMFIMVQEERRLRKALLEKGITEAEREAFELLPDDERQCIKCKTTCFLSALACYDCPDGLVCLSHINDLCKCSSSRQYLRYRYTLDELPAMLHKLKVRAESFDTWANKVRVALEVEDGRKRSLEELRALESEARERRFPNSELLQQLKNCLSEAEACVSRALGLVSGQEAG
# Description: MALDI-TOF MS demethylation assay on KDM5C (His-tagged KDM5C 1-839)
# [5] = target: T5, LSD2 (His-tagged ΔN25 human LSD2) (Homo sapiens, UniProt Q8NB78); assay: MALDI-TOF MS demethylation assay; conditions: no inhibition at 50 μM; 10 μM H3K4me2 peptide, pH 8.5, 37 °C
# T5 construct: gene KDM1B
# T5 sequence (Q8NB78 26-822): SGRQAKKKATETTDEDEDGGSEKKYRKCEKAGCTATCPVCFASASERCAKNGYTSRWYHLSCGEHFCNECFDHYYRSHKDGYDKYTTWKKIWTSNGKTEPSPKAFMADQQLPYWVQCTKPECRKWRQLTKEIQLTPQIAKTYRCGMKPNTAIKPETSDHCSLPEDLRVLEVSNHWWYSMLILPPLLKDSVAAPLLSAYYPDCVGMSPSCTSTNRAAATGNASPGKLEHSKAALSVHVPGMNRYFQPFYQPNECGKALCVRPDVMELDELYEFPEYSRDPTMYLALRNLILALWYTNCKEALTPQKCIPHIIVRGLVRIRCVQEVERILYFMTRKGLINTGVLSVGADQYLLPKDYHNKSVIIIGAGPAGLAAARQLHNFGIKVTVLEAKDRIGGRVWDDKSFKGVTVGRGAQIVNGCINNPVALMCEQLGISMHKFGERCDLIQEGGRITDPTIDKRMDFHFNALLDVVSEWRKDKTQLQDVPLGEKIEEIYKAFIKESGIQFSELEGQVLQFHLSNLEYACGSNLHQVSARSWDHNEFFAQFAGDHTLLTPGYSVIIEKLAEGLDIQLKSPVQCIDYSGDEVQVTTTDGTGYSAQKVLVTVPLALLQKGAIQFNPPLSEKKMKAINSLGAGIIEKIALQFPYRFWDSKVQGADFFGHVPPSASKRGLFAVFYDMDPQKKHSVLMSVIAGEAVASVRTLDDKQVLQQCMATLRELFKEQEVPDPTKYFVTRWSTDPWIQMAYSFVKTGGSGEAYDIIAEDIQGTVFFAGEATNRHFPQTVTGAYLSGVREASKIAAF
# Description: MALDI-TOF MS demethylation assay on LSD2 (His-tagged ΔN25 human LSD2)
IC50 ([1]; read-out: IC50 (μM)^a),Structure (SMILES),also measured
2.6 µM,CC1(C)C(=O)N=C2C1=C(O)C(=O)c1ccccc12 [BVT948],–
1.1 µM,CN(C)c1ccc2nc3ccc(=[N+](C)C)cc-3sc2c1 [Methylene Blue],–
0.055 µM,O=C1C(SCCO)=C(SCCO)C(=O)c2ccccc21 [NSC95397],–
5 µM,O=[N+]([O-])c1ccc(O)c2ncccc12 [Nitroxoline],–
1.8 µM,Nc1ccc2cc3ccc(N)cc3nc2c1 [Proflavine Hemisulfate],–
1.4 µM,Cc1ccc(NC2=CC(=O)c3sc(C)nc3C2=O)cc1 [Ryuvidine],IC50 [2]: > 50000 nM; IC50 [3]: 26 ± 10 nM; IC50 [4]: 8730 ± 1800 nM; IC50 [5]: > 50000 nM
–,C[CH2][Hg][S]c1ccccc1C(=O)O [Thimerosal],IC50 [1]: 0.13 µM
1.7 µM,Cc1cc2nc3ccc(N(C)C)cc3[s+]c2cc1N [Tolonium Chloride],–
